Measured values as given in patent publication US8497262B2, “Therapeutic pyrazolonaphthyridine derivatives” (Dart NeuroScience (Cayman) Ltd, priority 2007, dated 2013).
pIC50: −log10 of the molar value.

Experiments:
[1] = molecular target: GABAA central benzodiazepine receptor; test: Benzodiazepine binding assay ((3H)-flunitrazepam displacement); settings: read-out: BZ binding assay (IC50); rat whole brain (except cerebellum) membranes, 1 nM (3H)-flunitrazepam, 3-concentration dose response curve
GABAA receptors = test: Electrophysiology assay (two-electrode voltage clamp, Xenopus oocytes expressing GABAA receptors); format: cell-based; settings: positive (Pos) or negative (Neg) modulation of GABA EC10 current at a screening concentration of 10 μM; receptor subtype not stated
Procedure: The modulation of GABAA function is determined by changes in current as determined in an electrophysiology assay, as is detailed below.
mRNA was prepared from lyophilized plasmid pellets containing cDNA inserts encoding the specific GABAA receptor subunit. cDNAs encoding the α2, α3, and γ3 subunits were subcloned into pBluescript, SK^−. cDNAs encoding the α1 and α5 subunits were subcloned into prC while cDNA encoding the β2 subunit was subcloned into pcDNA1. The cDNA construct encoding the γ2s subunit is in the pGH19 expression construct. Overnight cultures of transformed DH5a bacterial cells were performed to grow sufficient quantities for maxiprep isolation of the plasmid cDNA. The resulting plasmid cDNA was linearized by digestion with an appropriate restriction enzyme that cleaves distal to the cDNA insert (XbaI for α1,2, β2, and γ3 or NotI for α3,5 and γ2, respectively). Following digestion, plasmid cDNA was treated with proteinase K and extracted with phenol/chloroform/isoamyl alcohol, followed by ethanol precipitation. cDNA quality was assessed by agarose-gel electrophoresis (1.5% agarose gel). Samples were stored at −20° C. until use. In vitro transcription was performed with T7 RNA polymerase. mRNA was then stored at −80° C. until use. Plasmids were linearized with appropriate restriction enzymes before in vitro transcription using the Message Machine kit (Ambion, Austin, Tex.).
GABAA receptor expression in Xenopus oocytes: Following 45 min of 0.15% Tricaine anesthesia, an ovarian section containing the follicular oocytes was removed from the frog through a lateral abdominal incision. Oocytes were immediately placed in a calcium-free solution (NaCl 96 mM, MgCl2 1 mM, KCl 2 mM, Hepes 50 mM, pyruvate 2.5 mM, gentamycin 100 μg/mL, penicillin-streptomycin 50 U/mL, pH 7.4). Following 1.5-2 hour incubation in 0.2% collagenase (type II, Sigma Chemical Co., St. Louis, Mo.) at room temperature, individual Dumont stage V and VI oocytes were transferred to an incubator and maintained overnight in Barth's solution (NaCl 84 mM, NaHCO3 2.4 mM, MgSO4 0.82 mM, KCl 1 mM, Ca(NO3)2 0.33 mM, CaCl2 0.41 mM, Tris/HCl 7.5 mM, pyruvate 2.5 mM, gentamycin 50 μg/mL, penicillin-streptomycin, 100 units/mL, pH 7.4) at 18-20° C. and used for experiments 1-5 days post-injection. Oocytes were injected solution using an electronic microinjector (Drummond, Broomall, Pa.) with […] of RNA containing 0.3-0.5 ng of each subunit RNA in a 1:1:1 ratio. The injected oocytes were used for experiments after 1-5 days of incubation in Barth's solution at 18-20° C.
Measurements of ion currents from oocytes expressing GABAA receptors were performed using a Warner two-electrode voltage-clamp amplifier (Warner Instruments, Inc., Foster City, Calif.) (Park-Chung, M., et al. (1999) Brain Res. 830: 72-87 incorporated herein in its entirety). Microelectrodes were fabricated from borosilicate glass capillaries with a programmed pipette puller (Sutter Instrument Co., CA). Microelectrode resistance was 1-3 MΩ when filled with 3 M KCl. The oocyte recording chamber was continuously perfused with Ringer solution. Oocytes were clamped at a holding potential of −70 mV during data acquisition. The membrane current was filtered at 10 Hz and sampled at 100 Hz. Compounds were applied by a gravity-driven external perfusion system. The working volume of the recording chamber was 30 μL and the rate of the perfusion was approximately 50 μL/sec. Compound application was 10-20 sec followed by a 90 sec wash. Data acquisition and external perfusion was computer controlled by custom-developed software. All experiments were performed at room temperature (22-24° C.). Dose-response data from each oocyte were fitted to the Hill equation by non-linear regression using the equation: IGABA=Emax/(1+(EC50/c)^n^H) Emax is the maximum response, EC50 is the concentration producing 50% of the maximal response, nH is the Hill coefficient and c is the concentration of agonist. […]

| pIC50 [1] | EP result (GABAA receptors) | Structure (SMILES) |
| --- | --- | --- |
| > 9.00 |  | O=c1c2c[nH]c3ccc(N4CCCC4)nc3c-2nn1-c1ccccc1 [6k, 2-Phenyl-8-pyrrolidin-1-yl-2,5-dihydro-pyrazolo[4,3-c][1,5]naphthyridin-3-one] |
| > 9.00 |  | O=c1c2c[nH]c3ccc(N4CCC(O)CC4)nc3c-2nn1-c1ccccc1 [6d, 8-(4-Hydroxy-piperidin-1-yl)-2-phenyl-2,5-dihydro-pyrazolo[4,3-c][1,5]naphthyridin-3-one] |
| > 6.00 | Neg | CN1CCN(c2ccc3[nH]cc4c(=O)n(-c5ccccc5)nc-4c3n2)CC1 [6b, 8-(4-Methyl-piperazin-1-yl)-2-phenyl-2,5-dihydro-pyrazolo[4,3-c]-[1,5]naphthyridin-3-one] |
| > 6.00 |  | O=c1c2c[nH]c3ccc(N4CCN(c5ccc(F)cc5)CC4)nc3c-2nn1-c1ccccc1 [6g, 8-[4-(4-Fluoro-phenyl)-piperazin-1-yl]-2-phenyl-2,5-dihydro-pyrazolo[4,3-c][1,5]naphthyridin-3-one] |
| > 9.00 |  | O=c1c2c[nH]c3ccc(N4CCC(O)CC4)nc3c-2nn1-c1ccccn1 [6r] |
| > 6.00 |  | O=c1c2c[nH]c3ccc(N4CCCC(O)C4)nc3c-2nn1-c1ccccc1 (stereo not shown) [6f, 8-(3-Hydroxy-piperidin-1-yl)-2-phenyl-2,5-dihydro-pyrazolo[4,3-c][1,5]naphthyridin-3-one] |
| > 6.00 | Pos | CC1CN(c2ccc3[nH]cc4c(=O)n(-c5ccccn5)nc-4c3n2)CCN1 (stereo not shown) [6q, 8-(3-Methyl-piperazin-1-yl)-2-pyridin-2-yl-2,5-dihydro-pyrazolo[4,3-c][1,5]naphthyridin-3-one] |
| > 9.00 | Neg | COc1ccc(-n2nc3c4nc(N5CCN(C)CC5)ccc4[nH]cc-3c2=O)cc1 [6t, 2-(4-Methoxy-phenyl)-8-(4-methyl-piperazin-1-yl)-2,5-dihydro-pyrazolo[4,3-c][1,5]naphthyridin-3-one] |
| > 9.00 | Neg | O=c1c2c[nH]c3ccc(N4CCOCC4)nc3c-2nn1-c1ccccc1 [6c, 8-Morpholin-4-yl-2-phenyl-2,5-dihydro-pyrazolo[4,3-c][1,5]naphthyridin-3-one] |
| > 9.00 |  | O=c1c2c[nH]c3ccc(N4CCCC(CO)C4)nc3c-2nn1-c1ccccc1 (stereo not shown) [6i, 8-(3-Hydroxymethyl-piperidin-1-yl)-2-phenyl-2,5-dihydro-pyrazolo[4,3-c][1,5]naphthyridin-3-one] |
| > 6.00 |  | O=c1c2c[nH]c3ccc(N4CCOCC4)nc3c-2nn1-c1ccccn1 [6o, 8-Morpholin-4-yl-2-pyridin-2-yl-2,5-dihydro-pyrazolo[4,3-c][1,5]naphthyridin-3-one] |
| > 6.00 | Neg | O=c1c2c[nH]c3ccc(N4CCNCC4)nc3c-2nn1-c1ccccc1 [6a, 2-Phenyl-8-(piperazin-1-yl)-2,5-dihydro-pyrazolo[4,3-c][1,5]naphthyridin-3-one] |
| > 6.00 | Pos | O=c1c2c[nH]c3ccc(N4CCNCC4)nc3c-2nn1-c1ccccn1 [6s, 8-piperazin-1-yl-2-pyridin-2-yl-2,5-dihydro-pyrazolo[4,3-c][1,5]naphthyridin-3-one] |
| < 6.00 |  | O=c1c2c[nH]c3c(N4CCNCC4)nccc3c-2nn1-c1ccccc1 [compound 17, 2-Phenyl-6-(piperazin-1-yl)-2,5-dihydro-pyrazolo[4,3-c][1,7]naphthyridin-3-one] |
| < 6.00 | Neg | O=c1c2c[nH]c3cc(N4CCNCC4)ncc3c-2nn1-c1ccccc1 [compound 14, 2-Phenyl-7-(piperazin-1-yl)-2,5-dihydro-pyrazolo[4,3-c][1,6]naphthyridin-3-one] |
| > 6.00 |  | CN1CCN(c2ccc3[nH]cc4c(=O)n(-c5ccccn5)nc-4c3n2)CC1 [6n, 8-(4-Methyl-piperazin-1-yl)-2-pyridin-2-yl-2,5-dihydro-pyrazolo[4,3-c][1,5]naphthyridin-3-one] |
| > 6.00 |  | O=C1CN(c2ccc3[nH]cc4c(=O)n(-c5ccccc5)nc-4c3n2)CCN1 [6j, 8-(3-Oxo-piperazin-1-yl)-2-phenyl-2,5-dihydro-pyrazolo[4,3-c][1,5]naphthyridin-3-one] |
| > 6.00 |  | CC1CN(c2ccc3[nH]cc4c(=O)n(-c5ccccc5)nc-4c3n2)CCN1 (stereo not shown) [6e, 8-(3-Methyl-piperazin-1-yl)-2-phenyl-2,5-dihydro-pyrazolo[4,3-c][1,5]naphthyridin-3-one] |
| > 6.00 | Pos | CC1CN(c2ccc3[nH]cc4c(=O)n(-c5ccccc5)nc-4c3n2)CC(C)O1 (stereo not shown) [6m, 8-(2,6-Dimethyl-morpholin-4-yl)-2-phenyl-2,5-dihydro-pyrazolo[4,3-c][1,5]naphthyridin-3-one] |
| > 6.00 |  | CN1CCCN(c2ccc3[nH]cc4c(=O)n(-c5ccccn5)nc-4c3n2)CC1 [6p, 8-(4-Methyl-[1,4]diazepan-1-yl)-2-pyridin-2-yl-2,5-dihydro-pyrazolo[4,3-c][1,5]naphthyridin-3-one] |
| > 6.00 |  | O=c1c2c[nH]c3ccc(N4CCCNCC4)nc3c-2nn1-c1ccccc1 [6h, 8-[1,4]-Diazepan-1-yl-2-phenyl-2,5-dihydro-pyrazolo[4,3-c][1,5]naphthyridin-3-one] |
| > 6.00 | Pos | O=c1c2c[nH]c3ccc(N4CCN(c5ccccc5)CC4)nc3c-2nn1-c1ccccc1 [6l, 2-Phenyl-8-(4-phenyl-piperazin-1-yl)-2,5-dihydro-pyrazolo[4,3-c][1,5]naphthyridin-3-one] |
